Target: GSK3β (Homo sapiens, UniProt P49841)
Test: Inhibitory activity against GSK3β (33P-ATP phosphorylation of prephosphorylated GS1 peptide, four protocols)
Assay type: biochemical
Conditions: protocol 4: commercial GSK3beta (Millipore), 7.5 μM GS1 peptide, 10 μM ATP, 50 mM Hepes pH 7.2, 90 minutes at room temperature
Experimental: Four different protocols can be used. In a first protocol: 7.5 μM of prephosphorylated GS1 peptide and 10 μM ATP (containing 300,000 cpm of ^33P-ATP) were incubated in 25 mM Tris-HCl, pH 7.5, 0.6 mM DTT, 6 mM MgCl2, 0.6 mM EGTA, 0.05 mg/ml BSA buffer for 1 hour at room temperature in the presence of GSK3beta (total reaction volume: 100 microliters). In a second protocol: 4.1 μM of prephosphorylated GS1 peptide and 42 μM ATP (containing 260,000 cpm ^33P-ATP) were incubated in 80 mM Mes-NaOH, pH 6.5, 1 mM Mg acetate, 0.5 mM EGTA, 5 mM 2-mercaptoethanol, 0.02% Tween 20, 10% glycerol buffer for 2 hours at room temperature in the presence of GSK3beta. In a third protocol: 7.5 μM of prephosphorylated GS1 peptide and 10 μM ATP (containing 300,000 cpm of ^33P-ATP) were incubated in 50 mM Hepes, pH 7.2, 1 mM DTT, 1 mM MgCl2, 1 mM EGTA, 0.01% Tween 20 buffer for one hour at room temperature in the presence of GSK3beta (total reaction volume: 100 microliters). In a fourth protocol: 7.5 μM of prephosphorylated GS1 peptide and 10 μM ATP (containing 300,000 cpm of ^33P-ATP) were incubated in 50 mM Hepes, pH 7.2, 1 mM DTT, 1 mM MgCl2, 1 mM EGTA, 0.01% Tween 20 buffer for 90 minutes at room temperature in the presence of commercial GSK3beta (Millipore) (total reaction volume: 100 microliters). Inhibitors were solubilized in DMSO (final solvent concentration in the reaction medium, 1%). The reaction was stopped with 100 microliters of a solution made of 25 g polyphosphoric acid (85% P2O5), 126 ml 85% H3PO4, H2O to 500 ml and then diluted to 1:100 before use. An aliquot of the reaction mixture was then transferred to Whatman P81 cation exchange filters and rinsed with the solution described above. Incorporated ^33P radioactivity was determined by liquid scintillation spectrometry. The phosphorylated GS-1 peptide had the following sequence: NH2-[…](P)EDEE-COOH. (Woodgett, J. R. (1989) Analytical Biochemistry 180, 237-241.

Sequence of GSK3β (P49841 whole entry): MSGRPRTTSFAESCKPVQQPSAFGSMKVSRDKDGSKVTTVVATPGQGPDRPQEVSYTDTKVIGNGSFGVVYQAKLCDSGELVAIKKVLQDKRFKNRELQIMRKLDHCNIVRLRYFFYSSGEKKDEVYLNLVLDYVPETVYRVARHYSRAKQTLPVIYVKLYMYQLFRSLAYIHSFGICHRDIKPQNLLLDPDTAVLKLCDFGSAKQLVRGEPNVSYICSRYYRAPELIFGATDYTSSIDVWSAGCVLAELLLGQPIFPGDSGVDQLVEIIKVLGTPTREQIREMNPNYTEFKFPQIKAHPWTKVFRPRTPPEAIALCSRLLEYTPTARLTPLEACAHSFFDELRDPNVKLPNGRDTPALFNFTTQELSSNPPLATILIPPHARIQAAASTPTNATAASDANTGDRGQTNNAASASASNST

Row | Compound | IC50 [nM]
1 | COc1ccccc1NC(=O)C1CCCn2c1nc(-c1ccncn1)cc2=O (racemic) [compound No. 1 of table 1, (+/−)-4-oxo-2-pyrimidin-4-yl-6,7,8,9-tetrahydro-4H-pyrido[1,2-a]pyrimidine-9-carboxylic acid N-(2-methoxy-phenyl)-amide] | 27
2 | COc1cc(Cl)ccc1C(=O)NCC1CCCCn2c1nc(-c1ccncn1)cc2=O (racemic) [compound No. 2 of table 2, (+/−)-4-Chloro-2-methoxy-N-(4-oxo-2-pyrimidin-4-yl-4,6,7,8,9,10-hexahydro-pyrimido[1,2-a]azepin-10-ylmethyl)-benzamide] | 30
3 | COc1cc(Cl)ccc1C(=O)NCC1CCCn2c1nc(-c1ccncn1)cc2=O (racemic) [compound No. 8 of table 1, (+/−)-4-Chloro-2-methoxy-N-(4-oxo-2-pyrimidin-4-yl-6,7,8,9-tetrahydro-4H-pyrido[1,2-a]pyrimidin-9-ylmethyl)-benzamide] | 19
